In patent US20250154144A1 (CHILDREN'S HOSPITAL MEDICAL CENTER, priority 2021, published 2025):
Read-outs that look alike come from different tables or passages of the source.

What was measured:
MOLM14(D835Y) cells = type: cell-based; conditions: MOLM14(D835Y), 10 × 10
THP1 cells = assay: Combination drug screening, Cell Titer Glo, 10 × 10 matrix, THP1 cells; type: cell-based
[1] = title compound starting conc. 20000 nM + (+)-BAY-1251152 starting conc. 1000 nM
[2] = title compound starting conc. 20000 nM + Azacitidine (5-Azacytidine) starting conc. 20000 nM
[3] = title compound starting conc. 20000 nM + Palbociclib starting conc. 10000 nM
[4] = title compound starting conc. 20000 nM + Prednisolone starting conc. 10000 nM
[5] = title compound starting conc. 20000 nM + TNO-155 starting conc. 10000 nM
[6] = title compound starting conc. 20000 nM + Venetoclax (ABT-199) starting conc. 2000 nM
[7] = title compound starting conc. 20000 nM + Venetoclax (ABT-199) starting conc. 20000 nM
[8] = starting conc. 200 nM, with (+)-BAY-1251152 starting conc. 1000 nM
[9] = starting conc. 200 nM, with Azacitidine (5-Azacytidine) starting conc. 20000 nM
[10] = starting conc. 200 nM, with Palbociclib starting conc. 10000 nM
[11] = starting conc. 200 nM, with Prednisolone starting conc. 10000 nM
[12] = starting conc. 200 nM, with TNO-155 starting conc. 10000 nM
[13] = starting conc. 200 nM, with Venetoclax (ABT-199) starting conc. 2000 nM
[14] = starting conc. 200 nM, with Venetoclax (ABT-199) starting conc. 20000 nM
[15] = starting conc. 20000 nM, with (+)-BAY-1251152 starting conc. 1000 nM
[16] = starting conc. 20000 nM, with Azacitidine (5-Azacytidine) starting conc. 20000 nM
[17] = starting conc. 20000 nM, with Palbociclib starting conc. 10000 nM
[18] = starting conc. 20000 nM, with Prednisolone starting conc. 10000 nM
[19] = starting conc. 20000 nM, with TNO-155 starting conc. 10000 nM
[20] = starting conc. 20000 nM, with Venetoclax (ABT-199) starting conc. 2000 nM
[21] = starting conc. 20000 nM, with Venetoclax (ABT-199) starting conc. 20000 nM
[22] = starting conc. 2000 nM, with (+)-BAY-1251152 starting conc. 1000 nM
[23] = starting conc. 2000 nM, with Azacitidine (5-Azacytidine) starting conc. 20000 nM
[24] = starting conc. 2000 nM, with Palbociclib starting conc. 10000 nM
[25] = starting conc. 2000 nM, with Prednisolone starting conc. 10000 nM
[26] = starting conc. 2000 nM, with TNO-155 starting conc. 10000 nM
[27] = starting conc. 2000 nM, with Venetoclax (ABT-199) starting conc. 2000 nM
[28] = starting conc. 2000 nM, with Venetoclax (ABT-199) starting conc. 20000 nM

## Cc1cnc(-c2ccc(-c3ccc(NC(=O)Nc4c(F)cc(F)cc4F)cc3F)c3c2C(=O)NC3)[nH]1 [CG-806, reference compound]
MOLM14(D835Y) cells; title compound starting conc. 200 nM + (+)-BAY-1251152 starting conc. 1000 nM
  Excess HSA Score: −340.1
MOLM14(D835Y) cells; title compound starting conc. 200 nM + Azacitidine (5-Azacytidine) starting conc. 20000 nM
  Excess HSA Score: −208.9
MOLM14(D835Y) cells; title compound starting conc. 200 nM + Palbociclib starting conc. 10000 nM
  Excess HSA Score: −828
MOLM14(D835Y) cells; title compound starting conc. 200 nM + Prednisolone starting conc. 10000 nM
  Excess HSA Score: −264.6
MOLM14(D835Y) cells; title compound starting conc. 200 nM + TNO-155 starting conc. 10000 nM
  Excess HSA Score: −776.6
MOLM14(D835Y) cells; title compound starting conc. 200 nM + Venetoclax (ABT-199) starting conc. 2000 nM
  Excess HSA Score: −1066
MOLM14(D835Y) cells; title compound starting conc. 200 nM + Venetoclax (ABT-199) starting conc. 20000 nM
  Excess HSA Score: −258.9
MOLM14(D835Y) cells; [1]
  Excess HSA Score: −150.9
MOLM14(D835Y) cells; [2]
  Excess HSA Score: −51.33
MOLM14(D835Y) cells; [3]
  Excess HSA Score: −199.1
MOLM14(D835Y) cells; [4]
  Excess HSA Score: 107.5
MOLM14(D835Y) cells; [5]
  Excess HSA Score: −286.9
MOLM14(D835Y) cells; [6]
  Excess HSA Score: −481.6
MOLM14(D835Y) cells; [7]
  Excess HSA Score: −139.4
THP1 cells; [8]
  Comments: Synergistic at both
  Excess HSA Score: −467.1
THP1 cells; [9]
  Comments: Antagonistic
  Excess HSA Score: 45.86
THP1 cells; [10]
  Comments: Antagonistic
  Excess HSA Score: 74.09
THP1 cells; [11]
  Comments: Synergistic
  Excess HSA Score: −30.78
THP1 cells; [12]
  Comments: Antagonistic
  Excess HSA Score: 12.04
THP1 cells; [13]
  Comments: Synergistic; Optimal
  Excess HSA Score: −1194
THP1 cells; [14]
  Comments: Synergistic; Optimal
  Excess HSA Score: −1904
THP1 cells; [15]
  Comments: Synergistic at both
  Excess HSA Score: −821.7
THP1 cells; [16]
  Comments: Synergistic
  Excess HSA Score: −425.4
THP1 cells; [17]
  Comments: Synergistic
  Excess HSA Score: −65.24
THP1 cells; [18]
  Comments: Antagonistic
  Excess HSA Score: 185.6
THP1 cells; [19]
  Comments: Synergistic
  Excess HSA Score: −333.2
THP1 cells; [20]
  Comments: Synergistic; Optimal
  Excess HSA Score: −9.516
THP1 cells; [21]
  Comments: Synergistic; Optimal
  Excess HSA Score: −1150

## Cc1cc(-c2nc(C(=O)Nc3cc4oc(N5CCOCC5)nc4nc3N3CC[C@@H](O)C3)co2)ccn1 [CA-4948, reference compound]
MOLM14(D835Y) cells; title compound starting conc. 2000 nM + (+)-BAY-1251152 starting conc. 1000 nM
  Excess HSA Score: −153.6
MOLM14(D835Y) cells; title compound starting conc. 2000 nM + Azacitidine (5-Azacytidine) starting conc. 20000 nM
  Excess HSA Score: −672.6
MOLM14(D835Y) cells; title compound starting conc. 2000 nM + Palbociclib starting conc. 10000 nM
  Excess HSA Score: −930
MOLM14(D835Y) cells; title compound starting conc. 2000 nM + Prednisolone starting conc. 10000 nM
  Excess HSA Score: −435.8
MOLM14(D835Y) cells; title compound starting conc. 2000 nM + TNO-155 starting conc. 10000 nM
  Excess HSA Score: −1272
MOLM14(D835Y) cells; title compound starting conc. 2000 nM + Venetoclax (ABT-199) starting conc. 2000 nM
  Excess HSA Score: −280.9
MOLM14(D835Y) cells; title compound starting conc. 2000 nM + Venetoclax (ABT-199) starting conc. 20000 nM
  Excess HSA Score: −1172
MOLM14(D835Y) cells; [1]
  Excess HSA Score: −195.3
MOLM14(D835Y) cells; [2]
  Excess HSA Score: −612.1
MOLM14(D835Y) cells; [3]
  Excess HSA Score: −90.76
MOLM14(D835Y) cells; [4]
  Excess HSA Score: −397.1
MOLM14(D835Y) cells; [5]
  Excess HSA Score: −1174
MOLM14(D835Y) cells; [6]
  Excess HSA Score: −1088
MOLM14(D835Y) cells; [7]
  Excess HSA Score: −1078.145
THP1 cells; [22]
  Comments: Antagonistic at both
  Excess HSA Score: 43.42
THP1 cells; [23]
  Comments: Synergistic
  Excess HSA Score: −147.4
THP1 cells; [24]
  Comments: Synergistic
  Excess HSA Score: −41.44
THP1 cells; [25]
  Comments: Antagonistic
  Excess HSA Score: 28.64
THP1 cells; [26]
  Comments: Antagonistic
  Excess HSA Score: 22.1261
THP1 cells; [27]
  Comments: Antagonistic
  Excess HSA Score: 806.5237
THP1 cells; [28]
  Comments: Synergistic; Optimal
  Excess HSA Score: −48.9669
THP1 cells; [15]
  Comments: Antagonistic at both
  Excess HSA Score: 230.5
THP1 cells; [16]
  Comments: Synergistic
  Excess HSA Score: −562.3
THP1 cells; [17]
  Comments: Antagonistic
  Excess HSA Score: 579.4
THP1 cells; [18]
  Comments: Synergistic
  Excess HSA Score: −33.05
THP1 cells; [19]
  Comments: Additive
  Excess HSA Score: −0.9078
THP1 cells; [20]
  Comments: Synergistic; Optimal
  Excess HSA Score: −352.8
THP1 cells; [21]
  Comments: Synergistic; Optimal
  Excess HSA Score: −979.3

## CCc1nc(C(N)=O)c(Nc2ccc(N3CCC(N4CCN(C)CC4)CC3)c(OC)c2)nc1NC1CCOCC1 [Gilteritinib hemifumarate, Gilteritinib, reference compound]
MOLM14(D835Y) cells; title compound starting conc. 500 nM + (+)-BAY-1251152 starting conc. 1000 nM
  Excess HSA Score: 161.1
MOLM14(D835Y) cells; title compound starting conc. 500 nM + Azacitidine (5-Azacytidine) starting conc. 20000 nM
  Excess HSA Score: −848
MOLM14(D835Y) cells; title compound starting conc. 500 nM + Palbociclib starting conc. 10000 nM
  Excess HSA Score: −910.3
MOLM14(D835Y) cells; title compound starting conc. 500 nM + Prednisolone starting conc. 10000 nM
  Excess HSA Score: −285.8
MOLM14(D835Y) cells; title compound starting conc. 500 nM + TNO-155 starting conc. 10000 nM
  Excess HSA Score: −773.9
MOLM14(D835Y) cells; title compound starting conc. 500 nM + Venetoclax (ABT-199) starting conc. 2000 nM
  Excess HSA Score: −704
MOLM14(D835Y) cells; title compound starting conc. 500 nM + Venetoclax (ABT-199) starting conc. 20000 nM
  Excess HSA Score: −237.3
MOLM14(D835Y) cells; [1]
  Excess HSA Score: 43.97
MOLM14(D835Y) cells; [2]
  Excess HSA Score: −117
MOLM14(D835Y) cells; [3]
  Excess HSA Score: −262.1121
MOLM14(D835Y) cells; [4]
  Excess HSA Score: −290.6
MOLM14(D835Y) cells; [5]
  Excess HSA Score: −494.5
MOLM14(D835Y) cells; [6]
  Excess HSA Score: −876.4
MOLM14(D835Y) cells; [7]
  Excess HSA Score: −271.3
THP1 cells; starting conc. 500 nM, with (+)-BAY-1251152 starting conc. 1000 nM
  Excess HSA Score: −10.1945
THP1 cells; starting conc. 500 nM, with Azacitidine (5-Azacytidine) starting conc. 20000 nM
  Excess HSA Score: −354.4
THP1 cells; starting conc. 500 nM, with Palbociclib starting conc. 10000 nM
  Excess HSA Score: −228
THP1 cells; starting conc. 500 nM, with Prednisolone starting conc. 10000 nM
  Excess HSA Score: 119.9
THP1 cells; starting conc. 500 nM, with TNO-155 starting conc. 10000 nM
  Excess HSA Score: 15.34
THP1 cells; starting conc. 500 nM, with Venetoclax (ABT-199) starting conc. 2000 nM
  Excess HSA Score: −95.51
THP1 cells; starting conc. 500 nM, with Venetoclax (ABT-199) starting conc. 20000 nM
  Excess HSA Score: −866.3
THP1 cells; [15]
  Excess HSA Score: −484.1
THP1 cells; [16]
  Excess HSA Score: −391.5
THP1 cells; [17]
  Excess HSA Score: −415
THP1 cells; [18]
  Excess HSA Score: −149.2201
THP1 cells; [19]
  Excess HSA Score: −398.3
THP1 cells; [20]
  Excess HSA Score: −448
THP1 cells; [21]
  Excess HSA Score: −1390
